From ChEMBL document CHEMBL1147107, “Safety and pharmacokinetics of brecanavir, a novel human immunodeficiency virus type 1 protease inhibitor, following repeat administration with and without ritonavir in healthy adult subjects” (Antimicrob Agents Chemother, 2007)

Columns and labels:
Format in all cases: ADME, organism-based
[1] = Tmax in healthy human plasma at 800 mg measured on day 1
[2] = Tmax in healthy human plasma at 800 mg for every 12 hrs measured on day 15
[3] = Cmax in healthy human plasma at 800 mg for every 12 hrs measured on day 15; parameters: dose 800 mg
[4] = AUC (0-tau) in healthy human plasma at 800 mg for every 12 hrs measured on day 15
[5] = Cmax in healthy human plasma at 800 mg measured on day 1; parameters: dose 800 mg
[6] = Apparent oral clearance in healthy human plasma at 800 mg for every 12 hrs measured on day 15
[7] = Trough concentration in healthy human plasma at 800 mg for every 12 hrs measured on day 15; conditions: read-out: Cmin

Tmax [1]: 2.5 h | Tmax [2]: 3.75 h | Cmax [3]: 49.2 ng/mL | AUC tau at 12 h [4]: 199 ng·h/mL | Cmax [5]: 3.96 ng/mL | CL/F [6]: 67000 mL/min | concentration at 12 h [7]: 2.6 ng/mL
Compound: Cc1nc(COc2ccc(C[C@H](NC(=O)O[C@H]3CO[C@H]4OCC[C@H]43)[C@H](O)CN(CC(C)C)S(=O)(=O)c3ccc4c(c3)OCO4)cc2)cs1 [BRECANAVIR]
